Values after ≈ are worked out from the molar mass of the structure shown. Like-named read-outs stand apart in the source and are kept apart here.
What was measured:
hERG [1] = target: T1, hERG (Homo sapiens, UniProt Q12809); conditions: BMCL, 21, 7489-7495, 2011; cited from earlier work
[2] = led to discontinuation from clinical development; North American Journal of Medical Science, 4, 537-47, 2012; cited from earlier work
E. coli (ATCC 25922) = experiment: MIC by microbroth dilution, E. coli ATCC 25922; type: cell-based; conditions: Escherichia coli
Summary of the method: (§1)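 Minimum inhibitory concentrations come from a microdilution assay in broth done to NCCLS M07-08 specifications.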

MRSA E9749 = experiment: MIC against FQ resistant clinical strain MRSA E9749; type: cell-based; conditions: Staphylococcus aureus, fluoroquinolone resistant clinical strain, read-out: MIC against FQ resistant strains, MRSA E9749
Method: (§2) Shown below are the microbiological activities of representative compounds of Formula I of the invention. The compounds were tested by the microbroth dilution method (National committee for Clinical Laboratory Standards, 2011, M07-08) and the Minimum Inhibitory Concentration (MIC) was determined.
(§3) To test if compounds are able to overcome fluoroquinolone resistance, we have determined the MICS against Fluoroquinolone (FQ) resistant clinical strains of MRSA and E. coli.

MRSA E9823 = experiment: MIC against FQ resistant clinical strain MRSA E9823; type: cell-based; conditions: Staphylococcus aureus, fluoroquinolone resistant clinical strain, read-out: MIC against FQ resistant strains, MRSA E9823
Method: as §2, §3

[3] = tested on: Enterococcus faecalis (ATCC 29212); experiment: MIC by microbroth dilution, Enterococcus faecalis ATCC 29212; type: cell-based; conditions: ATCC29212
Method: (§4) Shown below are the microbiological activities of representative compounds of Formula I of the invention. The compounds were tested by the microbroth dilution method (National committee for Clinical Laboratory Standards, 2011, […]-08) and the Minimum Inhibitory Concentration (MIC) was determined.

[4] = tested on: Streptococcus pneumoniae (ATCC 6301); experiment: MIC by microbroth dilution, Streptococcus pneumoniae ATCC 6301; type: cell-based; conditions: ATCC6301
Method: as §4

[5] = tested on: Staphylococcus aureus (ATCC 29213); experiment: MIC by microbroth dilution, Staphylococcus aureus ATCC 29213; type: cell-based; conditions: ATCC29213
Method: as §4

[6] = tested on: Methicillin resistant Staphylococcus aureus (ATCC 33591); experiment: MIC by microbroth dilution, MRSA ATCC 33591; type: cell-based
Summary of the method: as §1

E. coli 86 = experiment: MIC against FQ resistant clinical strain E. coli 86; type: cell-based; conditions: Escherichia coli, fluoroquinolone resistant clinical strain, read-out: MIC against FQ resistant strains, E. coli 86
Method: (§5) The compounds were tested by the microbroth dilution method (National committee for Clinical Laboratory Standards, 2011, M07-08) and the Minimum Inhibitory Concentration (MIC) was determined.

E. coli U5690 = experiment: MIC against FQ resistant clinical strain E. coli U5690; type: cell-based; conditions: Escherichia coli, fluoroquinolone resistant clinical strain, read-out: MIC against FQ resistant strains, E. coli U5690
Method: as §5

E. coli U1306 = experiment: MIC against FQ resistant clinical strain E. coli U1306; type: cell-based; conditions: Escherichia coli, fluoroquinolone resistant clinical strain, read-out: MIC against FQ resistant strains, E. coli U1306
Method: as §5

[7] = tested on: K. pneumoniae (ATCC 700603); experiment: MIC by microbroth dilution, K. pneumoniae ATCC 700603; type: cell-based; conditions: Klebsiella pneumoniae, ATCC700603, Formula I compounds
Summary of the method: as §1

[8] = tested on: Moraxella catarrhalis (ATCC 8176); experiment: MIC by microbroth dilution, Moraxella catarrhalis ATCC 8176; type: cell-based; conditions: ATCC8176
Method: as §4

E. coli Gyrase = target: T2, E. coli Gyrase (Escherichia coli, UniProt P0AES4+P0AES6); experiment: in vitro Gyrase supercoiling assay (Inspiralis kit); type: biochemical; conditions: 1 hour at 37° C., read-out: % inhibition of DNA supercoiling activity; for inhibition at 0.1 µM: 0.1 μM compound; for inhibition at 1 µM: 1 μM compound
T2 construct: purchased Inspiralis
Method: To test for target specificity, the activity of compounds was evaluated in an in vitro Gyrase assay using recombinant Gyrase protein as per the instructions of the assay kit (Inspiralis). The assay measures the ability of E. coli Gyrase to convert relaxed plasmid DNA into the supercoiled form. The enzyme is incubated with the substrate (relaxed DNA) in the presence and absence of compounds for 1 hour at 37° C. and the DNA is run on a gel at low voltage for several hours. The gel is then stained with Ethidium bromide and DNA in the different forms is quantified using DNA imaging and quantification software (Image Lab). The activity of the enzyme is proportional to the amount of supercoiled form detected.

E. coli E1851 = experiment: MIC against FQ resistant clinical strain E. coli E1851; type: cell-based; conditions: Escherichia coli, fluoroquinolone resistant clinical strain, read-out: MIC against FQ resistant strains, E. coli E1851
Method: as §5

[9] = Single dose pharmacokinetics in male Swiss albino mice; type: in vivo
Method: (§6) Compounds were dosed to male Swiss albino mice to determine the pharmacokinetic profiles.
as §6

hERG [10] = target: T1, hERG; experiment: biochemical
Method: To test the ability of the VT-03 compounds to bind the hERG channel, membranes expressing the hERG channel were incubated with radiolabeled Astemizole and displacement of the labeled ligand in the presence of compounds was measured.
To test the ability of the VT-03 compounds (of Formula II) to bind the hERG channel, membranes expressing the hERG channel were incubated with radiolabeled Astemizole and displacement of the labeled ligand in the presence of compounds was measured.

[11] = tested on: S. aureus (MRSA ATCC 33591); experiment: Systemic infection model in mice against S. aureus (MRSA ATCC 33591); type: in vivo; conditions: 10 mg/kg i.v. one hour after infection and again 4 hours later, 15× lethal dose MRSA ATCC33591 intraperitoneally
Method: In order to evaluate the in vivo efficacy of the scaffold, we tested representative compounds for activity in the systemic infection model in mice (Antimicrobial Agents and Chemotherapy, 47, 2507-2512, 2003). In this model, a 15× medial lethal dose of the bacteria (MRSA ATCC33591) is administered to mice intraperiotoneally. An hour later, the compound is administered i.v. and again 4 hours later. VT-03-00061, was efficacious with a 50% survival at a dose of 10 mg/kg in this model.

MRSA 33591 = experiment: Mutation prevention concentration against MRSA 33591; type: cell-based
Method: (§7) The mutation prevention concentration or the concentration above which mutants are unlikely to be selected, was determined based on published protocols (Antimicrobial Agents and Chemotherapy, 45, 433-438, 2001).

[12] = target: T3, ciprofloxacin resistant recombinant Gyrase protein (with mutation S83L) (Escherichia coli, UniProt P0AES4+P0AES6, S83L); experiment: Gyrase supercoiling assay with ciprofloxacin resistant Gyrase (S83L); type: biochemical; conditions: read-out: Target specificity: % inhibition of supercoiling activity
T3 construct: purchased Inspiralis
Method: The enzyme is incubated with the substrate (relaxed DNA) in the presence and absence of compounds for 1 hour at 37° C. and the DNA is run on a gel at low voltage for several hours. The amount of supercoiled DNA is quantified using DNA imaging and quantification software (Image Lab). The activity of the enzyme is proportional to the amount of supercoiled form detected.

Acinetobacter BAA747 = experiment: MIC by microbroth dilution, Acinetobacter BAA747; type: cell-based; conditions: Formula II compounds, read-out: Minimum Inhibitory Concentration (MIC) Acinetobacter BAA747
Method: as §2
(§8) Analysis of microbiological activity of compounds shown below are the microbiological activities of representative compounds of Formula II of the invention. The compounds were tested by the microbroth dilution method as per the reference in Example 1.

E. faecalis ATCC 51299 = experiment: MIC by microbroth dilution, E. faecalis ATCC 51299; type: cell-based; conditions: Enterococcus faecalis, ATCC51299, Formula II compounds, read-out: Minimum Inhibitory Concentration (MIC) E. faecalis ATCC 51299
Method: as §2, §8

Pseudomonas ATCC 27853 = experiment: MIC by microbroth dilution, Pseudomonas ATCC 27853; type: cell-based; conditions: ATCC27853, Formula II compounds, read-out: Minimum Inhibitory Concentration (MIC) Pseudomonas ATCC 27853
Method: as §2, §8

A. baumannii = experiment: Mutation prevention concentration and mutation frequency against A. baumannii; type: cell-based
Method: as §7
The mutation prevention concentration and mutation frequencies were determined based on published protocols, the reference of which is provided in Example 4.

[13] = ATCC25922, Formula I compounds, read-out: MIC E. coli (ATCC 25922)
[14] = ATCC33591, Formula I compounds, read-out: MIC Methicillin resistant Staphylococcus aureus (ATCC 33591)
[15] = mouse, in vivo, intravenous, 5 mg/kg b.w., single dose
[16] = mouse, in vivo, oral, 10 mg/kg b.w., single dose

Compound	MIC (E. coli (ATCC 25922); [13]) [µg/mL]	MIC (MRSA E9749) [µg/mL]	MIC (MRSA E9823) [µg/mL]	MIC [3] [µg/mL]	MIC [4] [µg/mL]	MIC [5] [µg/mL]	MIC [6, 14] [µg/mL]	MIC [7] [µg/mL]	MIC [8] [µg/mL]	inhibition at 0.1 µM (E. coli Gyrase) [%]	inhibition at 1 µM (E. coli Gyrase) [%]	further results
COc1ccc2ncc(C#N)c(CCN3CCC(NCc4cc5c(cn4)OCS5)CC3)c2c1 [GSK299423]												hERG binding liability (in words) (hERG [1]): serious hERG binding liability
COc1ccc2ncc(F)c([C@@H](O)CC[C@@H]3CCN(CCSc4cccs4)C[C@@H]3C(=O)O)c2c1 [NXL-101]												QT prolongation (in words) [2]: causes QT prolongation
COc1ccc2ncc(C#N)c(CCN3CCC(NCc4ccc([N+](=O)[O-])s4)CC3)c2c1 [VT-03-00052]	16 (≈ 35.4 µM)	0.25 (≈ 0.554 µM)	0.25 (≈ 0.554 µM)	4 (≈ 8.86 µM)	1 (≈ 2.21 µM)	0.125 (≈ 0.277 µM)	0.25 (≈ 0.554 µM)					
COc1ccc2ncc(=O)n(CCN3CCC(NCc4csc([N+](=O)[O-])c4)CC3)c2c1 [VT-03-00057]	2 (≈ 4.51 µM)	0.25 (≈ 0.564 µM)	0.25 (≈ 0.564 µM)	2 (≈ 4.51 µM)	0.5 (≈ 1.13 µM)	0.12 (≈ 0.271 µM)	0.25 (≈ 0.564 µM)	> 32	0.5 (≈ 1.13 µM)	61.4	90.6	MIC (E. coli 86): 16 µg/mL (≈ 36.1 µM); MIC (E. coli U5690): 8 µg/mL (≈ 18 µM); MIC (E. coli U1306): 16 µg/mL (≈ 36.1 µM); MIC (E. coli E1851): 2 µg/mL (≈ 4.51 µM)
COc1ccc2ncc(C#N)c(CCN3CCC(NCc4ccc(C)c([N+](=O)[O-])c4)CC3)c2c1 [VT-03-00061]	1 (≈ 2.18 µM)	0.015 (≈ 0.0326 µM)	≤ 0.0075	0.25 (≈ 0.544 µM)	0.015 (≈ 0.0326 µM)	0.015 (≈ 0.0326 µM)	0.015 (≈ 0.0326 µM)	8 (≈ 17.4 µM)	0.12 (≈ 0.261 µM)	99.8	99.7	oral bioavailability (in words) [9]: orally bioavailable; AUC(0-inf) [9, 15]: 368 ng·h/mL; Cmax [9, 15]: 400 ng/mL; half-life [9, 15]: 1.64 h; AUC(0-inf) [9, 16]: 104 ng·h/mL; Cmax [9, 16]: 51.5 ng/mL; half-life [9, 16]: 1.74 h; F % (Oral bioavaialbility) ([9]; oral 10 mg/kg vs intravenous 5 mg/kg): 11.51%; MIC (E. coli 86): 2 µg/mL (≈ 4.35 µM); MIC (E. coli U5690): 2 µg/mL (≈ 4.35 µM); MIC (E. coli U1306): 2 µg/mL (≈ 4.35 µM); MIC (E. coli E1851): 0.5 µg/mL (≈ 1.09 µM); IC50 (hERG [10]): > 30 µM; survival [11]: 50%; Mutation prevention concentration (MRSA 33591): 0.12 µg/mL
COc1ccc2ncc(=O)n(CCN3CCC(NCc4ccc(C)c([N+](=O)[O-])c4)CC3)c2c1 [VT-03-00062]	0.5 (≈ 1.11 µM)	0.015 (≈ 0.0332 µM)	≤ 0.0075	0.12 (≈ 0.266 µM)	0.015 (≈ 0.0332 µM)	≤ 0.0075	0.015 (≈ 0.0332 µM)	8 (≈ 17.7 µM)	≤ 0.06	91.5	98.7	
Cc1ccc(CNC2CCN(CCn3c(=O)cnc4ccc(F)cc43)CC2)cc1F [VT-03-00122]												AUC(0-t) ([9]; mouse, in vivo, iv, 5 mg/kg): 242 ng·h/mL; Cmax ([9]; mouse, in vivo, iv, 5 mg/kg): 381 ng/mL; Tmax ([9]; mouse, in vivo, iv, 5 mg/kg): 0.16 h; half-life ([9]; mouse, in vivo, iv, 5 mg/kg): 0.49 h; bioavailability ([9]; mouse, in vivo, oral 10 mg/kg vs i.v. 5 mg/kg): 7.69%; AUC(0-t) ([9]; mouse, in vivo, oral, 10 mg/kg): 37.3 ng·h/mL; Cmax ([9]; mouse, in vivo, oral, 10 mg/kg): 28.1 ng/mL; Tmax ([9]; mouse, in vivo, oral, 10 mg/kg): 1 h; inhibition at 0.1 µM [12]: 95.5%; inhibition at 1 µM [12]: 97.1%; MIC (Acinetobacter BAA747): 0.25 µg/mL (≈ 0.606 µM); MIC (E. coli (ATCC 25922); ATCC25922, Formula II compounds, read-out: Minimum Inhibitory Concentration (MIC) E. coli ATCC 25922): 0.25 µg/mL (≈ 0.606 µM); MIC (E. faecalis ATCC 51299): 0.5 µg/mL (≈ 1.21 µM); MIC (Pseudomonas ATCC 27853): 16 µg/mL (≈ 38.8 µM); Mutation prevention concentration against A. baumannii (A. baumannii): 16 µg/mL; Mutation frequency (A. baumannii; A. baumannii, at 8 μg/ml): 1.10 * 10^−8 at 8 μg/ml; IC50 (hERG [10]): > 30 µM; MIC ([6]; Formula II compounds, read-out: Minimum Inhibitory Concentration (MIC) MRSA ATCC 33591): 0.06 µg/mL (≈ 0.145 µM)
